From patent US9993494B2, “Compositions and methods for treating fibrotic disease” (eFFECTOR Therapeutics, Inc., priority 2014, dated 2018)

Test system: normal human lung fibroblasts
Experiment: Ribosomal profiling: translational efficiency in TGFβ-treated fibroblasts
Type: cell-based
Settings: TGFβ-treated fibroblasts
Protocol: Ribosomal profiling allows for measurement of changes in transcription and translation on a genome-wide basis accompanying TGFβ-dependent transformation of fibroblasts to myofibroblasts. Ribosomal profiles of the TGFβ-treated fibroblasts from Example 1 (about 6×10^6 cells/10 cm plate) were prepared and analyzed for changes in translational efficiencies with respect to potential disease-associated cellular changes accompanying this TGFβ-induced transformation.
Briefly, cells were washed with cold PBS supplemented with cycloheximide and lysed with 1× mammalian cell lysis buffer for 10 minutes on ice. Lysates were clarified by centrifugation for 10 minutes at 14,000 rpm and supernatants were collected. Cell lysates were processed to generate ribosomal protected fragments and total mRNA according to the instructions included with the ARTseq Ribosome Profiling Kit (Illumina, San Diego, Calif.). Sequencing of total RNA (RNA) and of ribosome-protected fragments of RNA (RPF) was carried out using RNA-Seq methodology according to the manufacturer's instructions (Illumina). To analyze the ribosomal profiles, RNA-Seq reads were processed with tools from the FASTX-Toolkit (fastq_quality_trimmer, fastx_clipper and fastx_trimmer). Unprocessed and processed reads were evaluated for a variety of quality measures using FastQC, and processed reads were mapped to the human genome using TopHat (see, e.g., Trapnell et al., Bioinformatics 25:1105, 2009). Gene-by-gene assessment of the number of fragments strictly and uniquely mapping to the coding region of each gene was conducted using HTSeq-count, a component of the HTSeq package. […] Genes with low counts in either RPF or RNA were excluded from differential analyses. Pathway and network analyses of differential data were conducted using Ingenuity Pathway Analysis (IPA).

COC(=O)[C@H]1[C@@H](O)[C@@]2(O)c3c(OC)cc(O[C@@H]4O[C@@H]([C@H](O)CO)CO[C@H]4OC)cc3O[C@@]2(c2ccc(OC)cc2)[C@@H]1c1ccccc1 [Silvestrol]
renormalizing the translational profile of DNASE1L1 (ENSG00000013563): + (+ = 0.9 to 1.5)
renormalizing the translational profile of KITLG (ENSG00000049130): − (− = <0.9)
renormalizing the translational profile of ADAMTS6 (ENSG00000049192): − (− = <0.9)
renormalizing the translational profile of LETMD1 (ENSG00000050426): − (− = <0.9)
renormalizing the translational profile of PLEKHA5 (ENSG00000052126): ++ (++ = 1.5 to 2.0)
renormalizing the translational profile of EIF4B (ENSG00000063046): − (− = <0.9)
renormalizing the translational profile of RPL18 (ENSG00000063177): − (− = <0.9)
renormalizing the translational profile of HIPK2 (ENSG00000064393): − (− = <0.9)
renormalizing the translational profile of ASPM (ENSG00000066279): + (+ = 0.9 to 1.5)
renormalizing the translational profile of RASSF1 (ENSG00000068028): − (− = <0.9)
renormalizing the translational profile of PABPC1 (ENSG00000070756): − (− = <0.9)
renormalizing the translational profile of RPL31 (ENSG00000071082): − (− = <0.9)
renormalizing the translational profile of PLD1 (ENSG00000075651): ++ (++ = 1.5 to 2.0)
renormalizing the translational profile of EDN1 (ENSG00000078401): ++ (++ = 1.5 to 2.0)
renormalizing the translational profile of AURKA (ENSG00000087586): − (− = <0.9)
renormalizing the translational profile of EPB41L1 (ENSG00000088367): + (+ = 0.9 to 1.5)
renormalizing the translational profile of RPL6 (ENSG00000089009): − (− = <0.9)
renormalizing the translational profile of P2RX7 (ENSG00000089041): − (− = <0.9)
renormalizing the translational profile of KDM2B (ENSG00000089094): − (− = <0.9)
renormalizing the translational profile of RPLP0 (ENSG00000089157): − (− = <0.9)
renormalizing the translational profile of IGBP1 (ENSG00000089289): − (− = <0.9)
renormalizing the translational profile of IRAK3 (ENSG00000090376): + (+ = 0.9 to 1.5)
renormalizing the translational profile of PABPC4 (ENSG00000090621): + (+ = 0.9 to 1.5)
renormalizing the translational profile of FMO2 (ENSG00000094963): − (− = <0.9)
renormalizing the translational profile of ACOT7 (ENSG00000097021): − (− = <0.9)
renormalizing the translational profile of ATP5D (ENSG00000099624): − (− = <0.9)
renormalizing the translational profile of LGALS1 (ENSG00000100097): − (− = <0.9)
renormalizing the translational profile of EIF3L (ENSG00000100129): − (− = <0.9)
renormalizing the translational profile of RPL3 (ENSG00000100316): − (− = <0.9)
renormalizing the translational profile of CEP192 (ENSG00000101639): + (+ = 0.9 to 1.5)
renormalizing the translational profile of AMMECR1 (ENSG00000101935): − (− = <0.9)
renormalizing the translational profile of PLP2 (ENSG00000102007): − (− = <0.9)
renormalizing the translational profile of EIF3E (ENSG00000104408): − (− = <0.9)
renormalizing the translational profile of EEF1D (ENSG00000104529): − (− = <0.9)
renormalizing the translational profile of C19orf53 (ENSG00000104979): − (− = <0.9)
renormalizing the translational profile of GLTSCR2 (ENSG00000105373): − (− = <0.9)
renormalizing the translational profile of RAB3D (ENSG00000105514): − (− = <0.9)
renormalizing the translational profile of RPL18A (ENSG00000105640): − (− = <0.9)
renormalizing the translational profile of COMP (ENSG00000105664): − (− = <0.9)
renormalizing the translational profile of GLCCI1 (ENSG00000106415): + (+ = 0.9 to 1.5)
renormalizing the translational profile of GDF10 (ENSG00000107623): − (− = <0.9)
renormalizing the translational profile of RPL28 (ENSG00000108107): − (− = <0.9)
renormalizing the translational profile of RPL19 (ENSG00000108298): − (− = <0.9)
renormalizing the translational profile of RASD1 (ENSG00000108551): +++ (+++ = >2.0)
renormalizing the translational profile of NAT9 (ENSG00000109065): − (− = <0.9)
renormalizing the translational profile of RPL34 (ENSG00000109475): − (− = <0.9)
renormalizing the translational profile of CRYAB (ENSG00000109846): − (− = <0.9)
renormalizing the translational profile of GAPDH (ENSG00000111640): − (− = <0.9)
renormalizing the translational profile of C12orf57 (ENSG00000111678): − (− = <0.9)
renormalizing the translational profile of MDFI (ENSG00000112559): − (− = <0.9)
renormalizing the translational profile of HBEGF (ENSG00000113070): + (+ = 0.9 to 1.5)
renormalizing the translational profile of RPL24 (ENSG00000114391): − (− = <0.9)
renormalizing the translational profile of EEF1B2 (ENSG00000114942): − (− = <0.9)
renormalizing the translational profile of IFIH1 (ENSG00000115267): − (− = <0.9)
renormalizing the translational profile of DPH5 (ENSG00000117543): − (− = <0.9)
renormalizing the translational profile of PPL (ENSG00000118898): − (− = <0.9)
renormalizing the translational profile of PLEKHG1 (ENSG00000120278): − (− = <0.9)
renormalizing the translational profile of LIAS (ENSG00000121897): − (− = <0.9)
renormalizing the translational profile of GPSM2 (ENSG00000121957): − (− = <0.9)
renormalizing the translational profile of RPL21 (ENSG00000122026): − (− = <0.9)
renormalizing the translational profile of RPL5 (ENSG00000122406): − (− = <0.9)
renormalizing the translational profile of INHBA (ENSG00000122641): + (+ = 0.9 to 1.5)
renormalizing the translational profile of CIT (ENSG00000122966): +++ (+++ = >2.0)
renormalizing the translational profile of RPL23 (ENSG00000125691): − (− = <0.9)
